The term IC50 denotes the concentration that inhibits the measured activity by half.

What all share (assay type): protein-complex assay
Assay [1] concerns the target T1, Neuronal acetylcholine receptor; alpha4/beta2 (Rattus norvegicus, UniProt P09483+P12390). Kind of assay: Inhibition of [3H](-)-nicotine binding to recombinant rat alpha4-beta2 nAChR.
The target of assay [2] is T1, Neuronal acetylcholine receptor; alpha4/beta2. Kind of assay: Inhibition of [3H](-)-nicotine binding to recombinant rat alpha4-beta2 nAChR was determined; experiment 1.
For assay [3] the target is unchanged. Kind of assay: Inhibition of [3H](-)-nicotine binding to recombinant rat alpha4-beta2 nAChR was determined; experiment 2.

T1 sequence (P09483 whole entry): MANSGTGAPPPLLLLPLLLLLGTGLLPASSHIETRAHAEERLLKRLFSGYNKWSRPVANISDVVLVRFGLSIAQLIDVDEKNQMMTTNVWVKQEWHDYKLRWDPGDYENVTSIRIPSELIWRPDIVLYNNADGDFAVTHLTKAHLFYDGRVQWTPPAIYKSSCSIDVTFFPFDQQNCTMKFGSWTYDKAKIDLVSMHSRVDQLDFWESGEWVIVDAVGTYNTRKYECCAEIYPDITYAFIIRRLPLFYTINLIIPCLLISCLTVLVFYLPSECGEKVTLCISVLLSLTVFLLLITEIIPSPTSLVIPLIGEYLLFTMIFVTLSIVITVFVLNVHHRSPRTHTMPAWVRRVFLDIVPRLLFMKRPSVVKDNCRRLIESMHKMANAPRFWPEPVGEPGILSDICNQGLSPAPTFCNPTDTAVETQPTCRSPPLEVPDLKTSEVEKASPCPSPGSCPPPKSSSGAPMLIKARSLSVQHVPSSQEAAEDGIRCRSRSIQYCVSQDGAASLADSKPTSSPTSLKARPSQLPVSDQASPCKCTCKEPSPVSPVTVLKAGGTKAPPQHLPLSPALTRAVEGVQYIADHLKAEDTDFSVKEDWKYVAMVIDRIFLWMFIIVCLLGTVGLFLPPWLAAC
T1 sequence (P12390 whole entry): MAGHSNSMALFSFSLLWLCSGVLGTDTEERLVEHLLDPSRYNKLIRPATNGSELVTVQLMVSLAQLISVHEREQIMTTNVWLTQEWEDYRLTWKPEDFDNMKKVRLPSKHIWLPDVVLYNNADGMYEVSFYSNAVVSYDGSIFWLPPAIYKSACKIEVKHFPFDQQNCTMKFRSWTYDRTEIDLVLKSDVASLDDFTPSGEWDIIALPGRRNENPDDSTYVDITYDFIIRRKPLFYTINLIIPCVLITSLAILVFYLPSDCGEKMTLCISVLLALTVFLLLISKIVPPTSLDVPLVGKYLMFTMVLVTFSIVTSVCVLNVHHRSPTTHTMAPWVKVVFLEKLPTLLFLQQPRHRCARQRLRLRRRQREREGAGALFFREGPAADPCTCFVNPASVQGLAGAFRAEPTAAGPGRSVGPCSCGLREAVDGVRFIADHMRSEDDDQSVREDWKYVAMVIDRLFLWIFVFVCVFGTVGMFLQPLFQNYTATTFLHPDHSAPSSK

With `Clc1ccc(Cn2ccnc2)cn1`, in assay [1], the half-inhibitory concentration (IC50) stood at 0.45 µM. As for `NC1=NCCCS1`, in assay [1], the IC50 was 160 µM.

On to `Clc1ccc(CN2CCN(Cc3ccc(Cl)nc3)CC2)cn1`, for which the half-inhibitory concentration (IC50) in assay [2] worked out at 1.74 µM; in assay [3], 1.65 µM. For the compound `SC1=NCCN1Cc1ccc(Cl)nc1`, the values for the IC50 in assay [2] and in assay [3] were 12.6 µM and 13.5 µM, respectively.

Take `NC1=NCCO1`: the 50% inhibitory concentration (IC50) in assay [2] came out at 99.5 µM; in assay [3], 95.3 µM. On to `CN1CCCC1c1ccc(Cl)nc1` (stereo not drawn), for which the 50% inhibitory concentration (IC50) in assay [1] came to 0.0019 µM. Same read-out and setting: in the case of `CN1CCCC1c1cccnc1Cl` (stereo not drawn) it was 3.2 µM; in that of `O=C1NCCN1Cc1ccc(Cl)nc1`, 8.1 µM; in that of `CCN(Cc1ccc(Cl)nc1)C(=N)NC`, 3.3 µM. On to `N=C1NCCN1Cc1ccc(Cl)nc1` [DESNITROIMIDACLOPRID], for which, in assay [1], the IC50 was found to be 0.006 µM.

The values are drawn from ChEMBL document CHEMBL1132245, “Novel and potent 6-chloro-3-pyridinyl ligands for the alpha4beta2 neuronal nicotinic acetylcholine receptor” (J Med Chem, 1999).
